Columns and labels:
Assay type in all cases: biochemical
Conditions in all cases: tested at 10 uM, read-out: percent inhibition of the kinase activity
[1] = target: T1, CASEIN K1G2 (Homo sapiens, UniProt P78368); assay: ProfilerPro Kinase Selectivity, CASEIN K1G2
T1 construct: purchased Caliper LifeSciences
Experimental: (§1) Kinome selectivity profiling was performed using two example compounds according to the manufacturer's instructions using Caliper LifeSciences' ProfilerPro Kinase Selectivity Assay Kits. Compounds prepared in Examples 1 and 7 were tested at 10 uM and data were recorded using the Caliper LabChip® EZ Reader™. Each compounds' percent inhibition of the kinase activity measured in this manner is reported in the following lists.

[2] = target: T2, FGFR2 (Homo sapiens, UniProt P21802); assay: ProfilerPro Kinase Selectivity, FGFR2
T2 construct: purchased Caliper LifeSciences
Experimental: as §1

[3] = target: T3, PRKCQ (Homo sapiens, UniProt Q04759); assay: ProfilerPro Kinase Selectivity, PRKCQ
T3 construct: purchased Caliper LifeSciences
Experimental: as §1

[4] = target: T4, ERK1 (Homo sapiens, UniProt P27361); assay: ProfilerPro Kinase Selectivity, ERK1
T4 construct: purchased Caliper LifeSciences
Experimental: as §1

[5] = target: T5, MSK1 (Homo sapiens, UniProt O75582); assay: ProfilerPro Kinase Selectivity, MSK1
T5 construct: purchased Caliper LifeSciences
Experimental: as §1

[6] = target: T6, TRKC (Homo sapiens, UniProt Q16288); assay: ProfilerPro Kinase Selectivity, TRKC
T6 construct: purchased Caliper LifeSciences
Experimental: as §1

[7] = target: T7, HGK (Homo sapiens, UniProt O95819); assay: ProfilerPro Kinase Selectivity, HGK
T7 construct: purchased Caliper LifeSciences
Experimental: as §1

[8] = target: T8, SRM (Homo sapiens, UniProt Q9H3Y6); assay: ProfilerPro Kinase Selectivity, SRM
T8 construct: purchased Caliper LifeSciences
Experimental: as §1

[9] = target: T9, PYK2 (Homo sapiens, UniProt Q14289); assay: ProfilerPro Kinase Selectivity, PYK2
T9 construct: purchased Caliper LifeSciences
Experimental: as §1

[10] = target: T10, MST3 (Homo sapiens, UniProt Q9Y6E0); assay: ProfilerPro Kinase Selectivity, MST3
T10 construct: purchased Caliper LifeSciences
Experimental: as §1

[11] = target: T11, IRAK4 (Homo sapiens, UniProt Q9NWZ3); assay: ProfilerPro Kinase Selectivity, IRAK4
T11 construct: purchased Caliper LifeSciences
Experimental: as §1

[12] = target: T12, EPHB2 (Homo sapiens, UniProt P29323); assay: ProfilerPro Kinase Selectivity, EPHB2
T12 construct: purchased Caliper LifeSciences
Experimental: as §1

[13] = target: T13, C-TAK1 (Homo sapiens, UniProt P27448); assay: ProfilerPro Kinase Selectivity, C-TAK1
T13 construct: purchased Caliper LifeSciences
Experimental: as §1

[14] = target: T14, BMX (Homo sapiens, UniProt P51813); assay: ProfilerPro Kinase Selectivity, BMX
T14 construct: purchased Caliper LifeSciences
Experimental: as §1

[15] = target: T15, AKT3 (Homo sapiens, UniProt Q9Y243); assay: ProfilerPro Kinase Selectivity, AKT3
T15 construct: purchased Caliper LifeSciences
Experimental: as §1

[16] = target: T16, MINK (Homo sapiens, UniProt Q8N4C8); assay: ProfilerPro Kinase Selectivity, MINK
T16 construct: purchased Caliper LifeSciences
Experimental: as §1

[17] = target: T17, RSK4 (Homo sapiens, UniProt Q9UK32); assay: ProfilerPro Kinase Selectivity, RSK4
T17 construct: purchased Caliper LifeSciences
Experimental: as §1

[18] = target: T18, ABL1 E255K (Homo sapiens, UniProt P00519, E255K); assay: ProfilerPro Kinase Selectivity, ABL1 E255K
T18 construct: purchased Caliper LifeSciences
Experimental: as §1

[19] = target: T19, PRKX (Homo sapiens, UniProt P51817); assay: ProfilerPro Kinase Selectivity, PRKX
T19 construct: purchased Caliper LifeSciences
Experimental: as §1

[20] = target: T20, IKKE (Homo sapiens, UniProt Q14164); assay: ProfilerPro Kinase Selectivity, IKKE
T20 construct: purchased Caliper LifeSciences
Experimental: as §1

[21] = target: T21, FGFR1 (Homo sapiens, UniProt P11362); assay: ProfilerPro Kinase Selectivity, FGFR1
T21 construct: purchased Caliper LifeSciences
Experimental: as §1

[22] = target: T22, PDGFR A(550) (Homo sapiens, UniProt P16234); assay: ProfilerPro Kinase Selectivity, PDGFR A(550)
T22 construct: purchased Caliper LifeSciences
Experimental: as §1

[23] = target: T23, FGFR3 (Homo sapiens, UniProt P22607); assay: ProfilerPro Kinase Selectivity, FGFR3
T23 construct: purchased Caliper LifeSciences
Experimental: as §1

[24] = target: T24, LYN (Homo sapiens, UniProt P07948); assay: ProfilerPro Kinase Selectivity, LYN
T24 construct: purchased Caliper LifeSciences
Experimental: as §1

[25] = target: T25, EPHA1 (Homo sapiens, UniProt P21709); assay: ProfilerPro Kinase Selectivity, EPHA1
T25 construct: purchased Caliper LifeSciences
Experimental: as §1

[26] = target: T26, SGK2 (Homo sapiens, UniProt Q9HBY8); assay: ProfilerPro Kinase Selectivity, SGK2
T26 construct: purchased Caliper LifeSciences
Experimental: as §1

[27] = target: T27, ABL1 Y253F (Homo sapiens, UniProt P00519, Y253F); assay: ProfilerPro Kinase Selectivity, ABL1 Y253F
T27 construct: purchased Caliper LifeSciences
Experimental: as §1

[28] = target: T28, ALK (Homo sapiens, UniProt Q9UM73); assay: ProfilerPro Kinase Selectivity, ALK
T28 construct: purchased Caliper LifeSciences
Experimental: as §1

[29] = target: T29, FYN (Homo sapiens, UniProt P06241); assay: ProfilerPro Kinase Selectivity, FYN
T29 construct: purchased Caliper LifeSciences
Experimental: as §1

[30] = target: T30, PRKCA (Homo sapiens, UniProt P17252); assay: ProfilerPro Kinase Selectivity, PRKCA
T30 construct: purchased Caliper LifeSciences
Experimental: as §1

[31] = target: T31, LTK (Homo sapiens, UniProt P29376); assay: ProfilerPro Kinase Selectivity, LTK
T31 construct: purchased Caliper LifeSciences
Experimental: as §1

[32] = target: T32, MET (Homo sapiens, UniProt P08581); assay: ProfilerPro Kinase Selectivity, MET
T32 construct: purchased Caliper LifeSciences
Experimental: as §1

[33] = target: T33, EPHA2 (Homo sapiens, UniProt P29317); assay: ProfilerPro Kinase Selectivity, EPHA2
T33 construct: purchased Caliper LifeSciences
Experimental: as §1

[34] = target: T34, EPHA5 (Homo sapiens, UniProt P54756); assay: ProfilerPro Kinase Selectivity, EPHA5
T34 construct: purchased Caliper LifeSciences
Experimental: as §1

[35] = target: T35, PRKCH (Homo sapiens, UniProt P24723); assay: ProfilerPro Kinase Selectivity, PRKCH
T35 construct: purchased Caliper LifeSciences
Experimental: as §1

[36] = target: T36, RET Y791F (Homo sapiens, UniProt P07949, Y791F); assay: ProfilerPro Kinase Selectivity, RET Y791F
T36 construct: purchased Caliper LifeSciences
Experimental: as §1

[37] = target: T37, MER (Homo sapiens, UniProt Q12866); assay: ProfilerPro Kinase Selectivity, MER
T37 construct: purchased Caliper LifeSciences
Experimental: as §1

[38] = target: T38, PAK2 (Homo sapiens, UniProt Q13177); assay: ProfilerPro Kinase Selectivity, PAK2
T38 construct: purchased Caliper LifeSciences
Experimental: as §1

[39] = target: T39, MST1R (Homo sapiens, UniProt Q04912); assay: ProfilerPro Kinase Selectivity, MST1R
T39 construct: purchased Caliper LifeSciences
Experimental: as §1

T21 sequence (P11362 22-822, species assumed): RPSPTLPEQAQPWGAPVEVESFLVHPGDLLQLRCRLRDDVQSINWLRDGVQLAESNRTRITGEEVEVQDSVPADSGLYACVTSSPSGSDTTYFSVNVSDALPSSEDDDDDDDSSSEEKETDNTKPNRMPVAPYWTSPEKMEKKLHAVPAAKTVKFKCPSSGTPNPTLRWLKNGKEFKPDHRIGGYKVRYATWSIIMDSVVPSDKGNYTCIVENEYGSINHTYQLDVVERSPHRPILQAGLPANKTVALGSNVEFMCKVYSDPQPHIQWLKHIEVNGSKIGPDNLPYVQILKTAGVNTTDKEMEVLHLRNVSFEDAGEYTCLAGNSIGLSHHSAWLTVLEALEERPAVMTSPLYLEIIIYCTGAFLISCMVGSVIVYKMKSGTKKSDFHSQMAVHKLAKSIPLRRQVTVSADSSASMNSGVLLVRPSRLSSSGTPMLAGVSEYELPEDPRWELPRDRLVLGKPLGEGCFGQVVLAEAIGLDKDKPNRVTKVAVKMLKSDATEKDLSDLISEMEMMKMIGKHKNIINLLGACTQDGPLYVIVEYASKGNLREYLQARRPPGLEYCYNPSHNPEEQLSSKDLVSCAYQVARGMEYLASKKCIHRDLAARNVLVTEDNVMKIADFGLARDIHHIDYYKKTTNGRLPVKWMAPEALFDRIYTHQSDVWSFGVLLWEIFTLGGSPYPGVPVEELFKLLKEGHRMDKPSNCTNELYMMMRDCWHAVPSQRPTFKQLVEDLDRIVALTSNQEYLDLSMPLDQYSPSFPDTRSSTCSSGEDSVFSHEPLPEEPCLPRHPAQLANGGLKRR
T16 sequence (Q8N4C8 whole entry): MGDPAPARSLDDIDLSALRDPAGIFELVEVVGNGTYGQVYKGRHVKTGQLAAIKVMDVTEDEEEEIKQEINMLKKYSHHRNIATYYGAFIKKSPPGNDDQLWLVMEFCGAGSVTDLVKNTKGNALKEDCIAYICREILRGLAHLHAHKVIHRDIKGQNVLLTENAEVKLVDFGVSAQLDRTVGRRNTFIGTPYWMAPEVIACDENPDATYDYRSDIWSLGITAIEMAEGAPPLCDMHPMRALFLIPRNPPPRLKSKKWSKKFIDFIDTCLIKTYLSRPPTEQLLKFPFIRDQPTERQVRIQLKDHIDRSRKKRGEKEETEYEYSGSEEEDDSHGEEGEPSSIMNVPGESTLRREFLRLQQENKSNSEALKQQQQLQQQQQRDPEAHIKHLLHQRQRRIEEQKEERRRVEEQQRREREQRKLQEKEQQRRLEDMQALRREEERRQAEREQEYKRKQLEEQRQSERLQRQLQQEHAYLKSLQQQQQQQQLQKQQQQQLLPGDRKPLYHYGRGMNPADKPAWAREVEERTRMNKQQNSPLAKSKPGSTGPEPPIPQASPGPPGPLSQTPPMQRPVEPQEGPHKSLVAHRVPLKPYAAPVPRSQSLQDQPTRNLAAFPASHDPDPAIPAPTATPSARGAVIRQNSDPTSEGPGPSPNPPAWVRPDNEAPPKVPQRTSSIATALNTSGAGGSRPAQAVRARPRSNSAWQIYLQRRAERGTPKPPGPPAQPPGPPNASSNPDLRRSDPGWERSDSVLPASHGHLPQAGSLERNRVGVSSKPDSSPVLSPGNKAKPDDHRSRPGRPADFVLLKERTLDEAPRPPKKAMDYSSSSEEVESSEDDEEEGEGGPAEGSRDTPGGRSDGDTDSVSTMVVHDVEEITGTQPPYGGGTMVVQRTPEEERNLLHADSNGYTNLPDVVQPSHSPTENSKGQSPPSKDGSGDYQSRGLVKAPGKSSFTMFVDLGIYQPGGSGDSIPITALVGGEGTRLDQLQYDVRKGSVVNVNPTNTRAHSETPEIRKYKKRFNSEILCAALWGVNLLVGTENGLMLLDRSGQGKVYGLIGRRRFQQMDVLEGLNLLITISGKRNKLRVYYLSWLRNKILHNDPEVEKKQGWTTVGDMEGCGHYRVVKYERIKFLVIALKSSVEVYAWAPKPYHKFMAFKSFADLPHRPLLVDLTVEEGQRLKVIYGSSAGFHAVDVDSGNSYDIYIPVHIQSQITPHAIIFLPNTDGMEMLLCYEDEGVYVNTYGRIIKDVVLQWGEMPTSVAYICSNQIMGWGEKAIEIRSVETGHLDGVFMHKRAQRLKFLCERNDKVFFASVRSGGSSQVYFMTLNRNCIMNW
T25 sequence (P21709 26-976, species assumed): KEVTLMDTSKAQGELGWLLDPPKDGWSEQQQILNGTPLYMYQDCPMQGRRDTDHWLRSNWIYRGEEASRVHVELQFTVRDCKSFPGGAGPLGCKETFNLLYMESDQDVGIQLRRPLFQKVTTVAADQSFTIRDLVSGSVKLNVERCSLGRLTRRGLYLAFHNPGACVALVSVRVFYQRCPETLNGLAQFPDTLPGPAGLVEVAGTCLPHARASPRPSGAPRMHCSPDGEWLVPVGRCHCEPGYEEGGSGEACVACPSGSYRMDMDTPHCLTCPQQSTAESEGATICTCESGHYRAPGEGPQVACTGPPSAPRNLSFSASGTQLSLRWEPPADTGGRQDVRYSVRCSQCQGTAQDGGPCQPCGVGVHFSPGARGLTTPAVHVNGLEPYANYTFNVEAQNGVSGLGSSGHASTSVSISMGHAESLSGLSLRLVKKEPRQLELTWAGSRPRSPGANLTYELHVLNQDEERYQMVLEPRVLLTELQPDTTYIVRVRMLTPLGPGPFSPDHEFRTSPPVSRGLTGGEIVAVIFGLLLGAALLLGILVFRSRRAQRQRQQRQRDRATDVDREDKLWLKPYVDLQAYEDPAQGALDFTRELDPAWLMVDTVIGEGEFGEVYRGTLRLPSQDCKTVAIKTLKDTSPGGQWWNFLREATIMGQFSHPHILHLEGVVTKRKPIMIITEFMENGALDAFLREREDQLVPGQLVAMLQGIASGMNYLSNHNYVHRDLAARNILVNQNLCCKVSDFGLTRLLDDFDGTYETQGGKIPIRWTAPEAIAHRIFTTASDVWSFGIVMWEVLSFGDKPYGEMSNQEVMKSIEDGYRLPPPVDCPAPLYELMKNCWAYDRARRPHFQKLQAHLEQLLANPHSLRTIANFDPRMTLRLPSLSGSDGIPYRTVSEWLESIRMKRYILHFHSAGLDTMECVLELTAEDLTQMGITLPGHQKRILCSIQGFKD
T22 sequence (P16234 550-1089 limits assumed, species assumed): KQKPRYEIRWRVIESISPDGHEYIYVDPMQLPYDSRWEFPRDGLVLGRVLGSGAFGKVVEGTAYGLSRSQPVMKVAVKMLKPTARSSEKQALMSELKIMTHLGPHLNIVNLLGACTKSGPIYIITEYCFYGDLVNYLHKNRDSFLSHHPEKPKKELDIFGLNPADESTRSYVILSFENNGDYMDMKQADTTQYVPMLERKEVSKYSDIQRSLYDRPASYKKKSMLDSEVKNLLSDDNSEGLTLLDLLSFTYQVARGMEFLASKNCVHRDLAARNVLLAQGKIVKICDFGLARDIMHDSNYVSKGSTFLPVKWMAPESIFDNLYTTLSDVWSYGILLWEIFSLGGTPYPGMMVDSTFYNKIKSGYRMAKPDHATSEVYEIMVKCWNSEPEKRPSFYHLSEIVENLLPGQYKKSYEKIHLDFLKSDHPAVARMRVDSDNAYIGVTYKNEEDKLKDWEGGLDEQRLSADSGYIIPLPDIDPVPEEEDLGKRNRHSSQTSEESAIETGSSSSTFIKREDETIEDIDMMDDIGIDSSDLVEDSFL
T20 sequence (Q14164 whole entry, species assumed): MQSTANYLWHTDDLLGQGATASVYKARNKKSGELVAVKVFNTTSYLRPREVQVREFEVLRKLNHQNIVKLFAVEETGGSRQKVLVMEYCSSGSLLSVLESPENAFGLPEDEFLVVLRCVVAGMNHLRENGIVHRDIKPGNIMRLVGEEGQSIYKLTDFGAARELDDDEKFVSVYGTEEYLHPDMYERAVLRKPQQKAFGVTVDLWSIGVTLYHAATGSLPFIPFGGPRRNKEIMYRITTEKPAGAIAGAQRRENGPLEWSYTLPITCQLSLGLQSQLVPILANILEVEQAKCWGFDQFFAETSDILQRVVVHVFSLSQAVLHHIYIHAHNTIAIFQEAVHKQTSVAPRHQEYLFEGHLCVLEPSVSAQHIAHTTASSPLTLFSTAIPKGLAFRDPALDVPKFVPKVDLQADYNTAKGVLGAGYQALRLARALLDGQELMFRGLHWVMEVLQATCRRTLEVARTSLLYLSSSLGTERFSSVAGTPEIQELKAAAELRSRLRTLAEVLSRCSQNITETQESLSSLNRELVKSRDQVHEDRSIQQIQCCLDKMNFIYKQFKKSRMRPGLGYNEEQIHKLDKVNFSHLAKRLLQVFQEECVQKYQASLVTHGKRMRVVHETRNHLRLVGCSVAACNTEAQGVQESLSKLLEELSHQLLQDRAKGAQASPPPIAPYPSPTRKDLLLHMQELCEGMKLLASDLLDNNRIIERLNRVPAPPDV
T19 sequence (P51817 whole entry, species assumed): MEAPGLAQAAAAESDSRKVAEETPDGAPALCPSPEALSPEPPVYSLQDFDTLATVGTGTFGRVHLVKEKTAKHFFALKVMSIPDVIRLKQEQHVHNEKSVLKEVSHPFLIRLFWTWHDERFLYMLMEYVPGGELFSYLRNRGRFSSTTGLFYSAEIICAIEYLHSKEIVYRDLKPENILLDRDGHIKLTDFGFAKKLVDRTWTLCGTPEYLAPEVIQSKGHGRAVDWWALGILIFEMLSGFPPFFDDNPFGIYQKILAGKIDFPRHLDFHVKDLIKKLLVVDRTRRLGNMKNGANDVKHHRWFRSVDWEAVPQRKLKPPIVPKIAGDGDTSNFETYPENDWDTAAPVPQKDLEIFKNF
T26 sequence (Q9HBY8 whole entry, species assumed): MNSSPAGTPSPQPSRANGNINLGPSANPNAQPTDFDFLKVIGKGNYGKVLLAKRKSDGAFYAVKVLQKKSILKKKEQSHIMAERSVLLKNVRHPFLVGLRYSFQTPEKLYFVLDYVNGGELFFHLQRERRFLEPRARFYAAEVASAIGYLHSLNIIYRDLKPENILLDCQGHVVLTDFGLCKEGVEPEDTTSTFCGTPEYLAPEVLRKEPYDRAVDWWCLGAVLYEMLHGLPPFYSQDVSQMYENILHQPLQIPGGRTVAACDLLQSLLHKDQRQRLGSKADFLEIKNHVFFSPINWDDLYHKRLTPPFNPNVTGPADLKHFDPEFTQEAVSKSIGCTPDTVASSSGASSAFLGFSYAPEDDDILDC

Structure (SMILES)	inhibition at 10 µM [1] [%]	inhibition at 10 µM [2] [%]	inhibition at 10 µM [3] [%]	inhibition at 10 µM [4] [%]	inhibition at 10 µM [5] [%]	inhibition at 10 µM [6] [%]	inhibition at 10 µM [7] [%]	inhibition at 10 µM [8] [%]	inhibition at 10 µM [9] [%]	inhibition at 10 µM [10] [%]	inhibition at 10 µM [11] [%]	inhibition at 10 µM [12] [%]	inhibition at 10 µM [13] [%]	inhibition at 10 µM [14] [%]	inhibition at 10 µM [15] [%]	inhibition at 10 µM [16] [%]	inhibition at 10 µM [17] [%]	inhibition at 10 µM [18] [%]	inhibition at 10 µM [19] [%]	inhibition at 10 µM [20] [%]	other results
CSc1sc(-c2cc[nH]n2)c2c1C(=O)CCC2 [Example 1, 3-(Methylsulfanyl)-1-(1H-pyrazol-3-yl)-6,7-dihydro-2-benzothiophen-4(5H)-one]	6.9	4.9	-0.4	-2	5.1	10.3	13.8	3.5	4.2	-2.2	31.1	2.6	5.3	-10.9	-2.2	24.8	2.9	2.8	-0.6	-1.5	inhibition at 10 µM [21]: 1.9%; inhibition at 10 µM [22]: 1.5%; inhibition at 10 µM [23]: 9%; inhibition at 10 µM [24]: 10.2%; inhibition at 10 µM [25]: 2.8%; inhibition at 10 µM [26]: 10.6%; inhibition at 10 µM [27]: 2.5%; inhibition at 10 µM [28]: 23.8%; inhibition at 10 µM [29]: 1.2%; inhibition at 10 µM [30]: 2.6%; inhibition at 10 µM [31]: 16%; inhibition at 10 µM [32]: 8.2%; inhibition at 10 µM [33]: 0.7%; inhibition at 10 µM [34]: -3.1%; inhibition at 10 µM [35]: 1.1%; inhibition at 10 µM [36]: 37.6%; inhibition at 10 µM [37]: 23.8%; inhibition at 10 µM [38]: 4.6%; inhibition at 10 µM [39]: -1.3%
CC1(C)CC(=O)c2c(SC3CCCC3)sc(-c3cc[nH]n3)c2C1 [Example 7, 3-(Cyclopentylsulfanyl)-6,6-dimethyl-1-(1H-pyrazol-3-yl)-6,7-dihydro-2-benzothiophen-4(5H)-one]	8.6	2.6	-4.7	1.9	-2.8	0.5	3.9	3	-0.6	-10.9	3.7	2.3	4.7	-30.7	-2.7	-1.5	-5.6	7.5	-6.6	1.3	inhibition at 10 µM [21]: 7.4%; inhibition at 10 µM [22]: -13.8%; inhibition at 10 µM [23]: -2.6%; inhibition at 10 µM [24]: 4%; inhibition at 10 µM [25]: -0.2%; inhibition at 10 µM [26]: 5.4%; inhibition at 10 µM [27]: 10.6%; inhibition at 10 µM [28]: 44.7%; inhibition at 10 µM [29]: 2.5%; inhibition at 10 µM [30]: 4.3%; inhibition at 10 µM [31]: 19.5%; inhibition at 10 µM [32]: -0.9%; inhibition at 10 µM [33]: 0.7%; inhibition at 10 µM [34]: 1.5%; inhibition at 10 µM [35]: 0.8%; inhibition at 10 µM [36]: 11.1%; inhibition at 10 µM [37]: 8%; inhibition at 10 µM [38]: 2.4%; inhibition at 10 µM [39]: -7%
